Assay results taken from patent US20140140952A1, “D-Alanine Ester of Sp-Nucleoside Analog” (IDENIX PHARMACEUTICALS, INC., priority 2012, published 2014).
pEC50: −log10 of the molar value.

How the values were obtained:
[1] = Liver pharmacokinetics (triphosphate) following a single oral dose in CD-1 mice; type: in vivo; conditions: CD-1 male mice, single oral dose 10 mg/kg for I or 25 mg/kg for II in PEG 200; liver 2′-methyl-2′-fluorouridine triphosphate; 4, 12, 24 hours
Protocol: Liver samples were analyzed for the active species 2′-methyl-2′-fluorouridine triphosphate (2′-Me-2′-F-U TP) by LC-MS/MS. […] Internal standard solution was added to the homogenate followed by neutralization with 20% ammonium hydroxide solution and addition of 500 μL 1% formic acid. The tissue samples were extracted by weak anion exchange solid phase extraction (SPE). Post extraction, the eluates were evaporated under nitrogen, followed by reconstitution before injection onto the LC-MS/MS system. […] The calibration range was 10 to 10000 pmol/mL in mouse liver homogenate (50 to 50000 pmol/g of mouse liver).

[2] = Stability in human liver microsomes; type: in vitro ADME; conditions: human liver microsomes 1.0 mg/mL, 10 μM, NADPH, 60 min
Protocol: (§1) Stability of test compounds was determined in subcellular fractions (microsomes and S9) of human liver and intestine in duplicate for each matrix. Pooled liver and intestinal microsomal, intestinal and liver S9 proteins (1.0 mg/mL), suspended in incubation buffer (100 mM potassium phosphate, pH 7.4, 5 mM MgCl2, and 0.1 mM EDTA), were preincubated for 5 min at 37° C. with 10 μM of a test compound from a 10 mM stock solution in DMSO (final DMSO concentration was 0.1%); the reaction was initiated by the addition of NADPH (3 mM final concentration). At specific times (0 and 60 min), 0.1 mL samples were taken and the reaction terminated by the addition of 4 volumes of stop solution (acetonitrile with 500 ng/mL carbutamide as an internal standard). The samples were vortexed for 30 sec and then centrifuged at 16,000 g for 10 min. Aliquots of supernatants (100 μL each) were transferred to 96 deep-well plates preloaded with 100 μL distilled water and analyzed after mixing by LC-MS/MS. The MS peak area ratio of the test compound versus the internal standard was calculated and percent unchanged test compound over 60 minutes was calculated using this ratio.

[3] = test system: HCV genotype 1b replicon; experiment: HCV replicon assay (Zluc luciferase reporter); type: cell-based; conditions: Hepatitis C virus, Zluc cells, 72 hours
Protocol: Huh-7-derived cell line (Zluc) that harbors an HCV genotype 1b replicon and a luciferase reporter gene was grown in Dulbecco's Modified Eagle Medium (DMEM) supplemented with 10% fetal bovine serum, 2 mM GlutaMAX, 1% MEM nonessential amino acids, 100 IU/mL penicillin, 100 μg/mL streptomycin, and 0.5 mg/mL Geneticin® (G418). For dose response testing the cells were seeded in 96-well plates at 7.5×10^3 cells per well in a volume of 50 μL, and incubated at 37° C./5% CO2. Drug solutions were made up freshly in Huh-7 media as 2× stocks. […] were prepared from these stocks in DMEM without G418. At least three hours after Zluc cells were seeded, drug treatment was initiated by adding 50 μL of drug dilutions to the plates in duplicate. Final concentrations of drug ranged from 100 μM to 0.0000512 μM. Cells were then incubated at 37° C./5% CO2. […] For this, media was removed from the plates via gentle tapping. Fifty microliters of ONE-glo luciferase assay reagent was added to each well. The plates were shaken gently for 3 min at room temperature and luminescence was measured on a Victor^3 V 1420 multilabel counter (Perkin Elmer) with a 1 second read time using a 700 nm cut-off filter. The EC50 values were calculated from dose response curves from the resulting best-fit equations determined by Microsoft Excel and XLfit 5.2 software. […]

[4] = Plasma pharmacokinetics following a single oral dose in CD-1 mice; type: in vivo; conditions: CD-1 male mice, single oral dose 10 mg/kg for I or 25 mg/kg for II in PEG 200; plasma 2′-methyl-2′-fluorouridine; 4, 12, 24 hours
Protocol: Plasma samples were analyzed for 2′-methyl-2′-fluorouridine (2′-Me-2′-F-U) by LC-MS/MS. The internal standard (IS) was D3-2′-F-2′-Me-G. For protein precipitation and extraction, each plasma sample (50 μL) was treated with 500 μL of 0.2% formic acid in acetonitrile and 20 μL of the internal standard working solution. After vortexing and centrifugation, 500 μL of the sample extracts were transferred to a new plate, dried under N2 at ˜28° C. and reconstituted with 75 μL of 0.2% FA in water. The extracts were chromatographed on an Aquasil C18 column using a gradient system of 0.2% formic acid in water and acetonitrile. The analytes were detected and quantified by tandem mass spectrometry in positive ion mode on an MDS Sciex API5000 equipped with a Turbo Ionspray® interface. The calibration range was 0.500 (LLOQ) to 200 ng/mL in mouse plasma.

[5] = Cytotoxicity evaluation, CellTiter-Blue Cell Viability Assay; type: cell-based; conditions: human, Zluc cells (Huh-7-derived cell line), read-out: HCV Replicon CC50
Protocol: For cytotoxicity evaluation, Zluc cells were treated with compound as described herein, and cell viability was monitored using the CellTiter-Blue Cell Viability Assay (Promega) by adding 20 μL of the assay solution to each well. The plates were then incubated at 37° C./5% CO2 for at least 3 hours. Fluorescence was detected in plates using excitation and emission wavelengths of 531 and 595 nm, respectively, in a Victor^3 V 1420 multilabel counter (Perkin Elmer) and CC50 values were determined using Microsoft Excel and XLfit 5.2 software.

[6] = Stability in human intestinal microsomes; type: in vitro ADME; conditions: human intestinal microsomes 1.0 mg/mL, 10 μM, NADPH, 60 min
Protocol: as §1

Row | Structure (SMILES) | Ms Liver 2′-Me-2′-F-U TP AUC (pmol · hr/g at 1 μmol/kg) [1] | Stability (expressed as percent remaining) HLM (1 hr) [2] | pEC50 [3] | Ms Plasma 2′-Me-2′-F-U AUC (pmol · hr/mL at 1 μmol/kg) [4] | CC50 [5] | Stability (expressed as percent remaining) HIM (1 hr) [6]
1 | CC(C)OC(=O)[C@@H](C)N[P@](=O)(OCC1O[C@@H](n2ccc(=O)[nH]c2=O)[C@](C)(F)[C@@H]1O)Oc1ccccc1 (single isomer, unassigned) [Compound (Ib), D-Alanine, N—((SP,2′R)-2′-deoxy-2′-fluoro-2′-methyl-P-phenyl-5′-uridylyl)-, 1-methylethyl ester] | +++ (400 < +++ ≦ 1000) | +++++ (80% < +++++) | < 5.00 | ++ (100 < ++ ≦ 400) | > 50 µM | +++++ (80% < +++++)
2 | CC(C)OC(=O)[C@@H](C)N[P@@](=O)(OCC1O[C@@H](n2ccc(=O)[nH]c2=O)[C@](C)(F)[C@@H]1O)Oc1ccccc1 (single isomer, unassigned) [Compound (Ia)] | +++++ (1600 < +++++) | ++++ (60% < ++++ ≦ 80%) | < 5.00 | +++ (400 < +++ ≦ 1000) | > 50 µM | +++++ (80% < +++++)
